# Data from PubChem BioAssay AID1033 (Sanford-Burnham Center for Chemical Genomics, 2008).
# Active and inactive are the calls of the source. The rule behind the calls is not given here.
# Target: Chaperone protein DnaK (Escherichia coli (strain K12)) (UniProt P0A6Y8)
# Assay: binders of DnaK substrate-binding domain, biophysical, NMR, chaperone (AID 1033)
# Details: Purified DnaK SBD, NMR ligand binding
# Chain of Chaperone protein DnaK (Escherichia coli (strain K12)) (P0A6Y8 whole entry, looked up, the tested form may be a part): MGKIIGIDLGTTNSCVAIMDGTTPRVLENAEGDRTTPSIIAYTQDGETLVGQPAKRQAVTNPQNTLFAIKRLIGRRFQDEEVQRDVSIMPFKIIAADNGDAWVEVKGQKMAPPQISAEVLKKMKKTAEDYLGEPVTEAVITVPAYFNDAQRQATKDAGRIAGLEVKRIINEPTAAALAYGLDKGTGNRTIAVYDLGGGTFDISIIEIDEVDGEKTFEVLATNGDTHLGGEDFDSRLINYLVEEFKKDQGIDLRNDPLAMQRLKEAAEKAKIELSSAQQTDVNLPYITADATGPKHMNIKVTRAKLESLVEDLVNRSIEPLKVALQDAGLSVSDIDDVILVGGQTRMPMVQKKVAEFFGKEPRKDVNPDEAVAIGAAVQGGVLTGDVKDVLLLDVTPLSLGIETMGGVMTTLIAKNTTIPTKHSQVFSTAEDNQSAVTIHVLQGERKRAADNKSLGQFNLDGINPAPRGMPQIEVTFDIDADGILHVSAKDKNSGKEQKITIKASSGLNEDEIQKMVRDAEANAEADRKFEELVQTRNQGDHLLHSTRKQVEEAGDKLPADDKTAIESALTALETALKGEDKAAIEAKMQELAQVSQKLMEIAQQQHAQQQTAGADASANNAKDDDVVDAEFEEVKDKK
row,SMILES,Kd
1,NC(=O)C1(S(=O)(=O)c2ccccc2)CC1,> 4 mM (inactive)
2,O=C(O)c1cc2ccccc2[nH]1,> 4 mM (inactive)
3,O=C(O)c1cccc2nsnc12,> 4 mM (inactive)
4,CSc1n[nH]c(NCc2ccccc2)n1,> 4 mM (inactive)
5,Oc1ccc([C@H]2Oc3cc(O)cc(O)c3C[C@H]2O)cc1,> 4 mM (inactive)
6,c1ccc(CSc2ncccn2)cc1,> 4 mM (inactive)
7,CCOCC(=O)N1CCc2ccccc21,> 4 mM (inactive)
8,NCc1ccc2c(c1)OCCO2,> 4 mM (inactive)
9,O=C(O)c1ccccc1N1CCOCC1,> 4 mM (inactive)
10,C[C@@H]1O[C@@H](O[C@H]2CC[C@]3(C=O)C4CC[C@]5(C)[C@@H](C6=CC(=O)OC6)CC[C@]5(O)C4CC[C@]3(O)C2)[C@H](O)[C@H](O)[C@H]1O (stereo partly specified),> 4 mM (inactive)
11,Cc1cc(=O)n2[nH]cnc2n1,> 4 mM (inactive)
12,Oc1cc(O)cc(/C=C/c2ccccc2)c1,> 4 mM (inactive)
13,O=C1CSC(=Nc2cc(Cl)ccc2Cl)N1,> 4 mM (inactive)
14,Cc1cccc(CO)n1,> 4 mM (inactive)
15,NC(=O)c1ccc(-c2ccccn2)s1,> 4 mM (inactive)
16,Nc1nncn1C(=O)c1ccccc1Cl,> 4 mM (inactive)
17,O=C(NC(=S)NC1CCS(=O)(=O)C1)c1ccccc1 (stereo unspecified),> 4 mM (inactive)
18,C=CC(C1=CC(=O)C=CC1=O)c1ccccc1 (stereo unspecified),> 4 mM (inactive)
19,CC(=O)Nc1ccc(NC2SC(=O)NC2=O)cc1 (stereo unspecified),> 4 mM (inactive)
20,NS(=O)(=O)c1ccccc1Cl,> 4 mM (inactive)
21,Nc1ccncc1,> 4 mM (inactive)
22,NCc1csc(-c2cccs2)n1,> 4 mM (inactive)
23,COCC(=O)NC1CC(C)(C)NC(C)(C)C1,> 4 mM (inactive)

row,SMILES,Kd
1,CC1(C)C2CC(=O)[C@]3(C)C(CC[C@@]4(C)[C@H](c5ccoc5)OC(=O)C5OC543)[C@@]2(C)[C@@H](O)C[C@H]1O (stereo partly specified),> 4 mM (inactive)
2,CCOc1ccc(C(=O)c2ccc(OC)c(O)c2O)cc1,> 4 mM (inactive)
3,Cc1ccc2[nH]cc(CCN)c2c1,> 4 mM (inactive)
4,Nc1cc(F)ccc1-n1ccnc1,> 4 mM (inactive)
5,O=C(O)Cn1c(=O)sc2ccccc21,> 4 mM (inactive)
6,CN(C)C(=O)c1ccc(-c2n[nH]c(=O)c3ccccc23)cc1,> 4 mM (inactive)
7,NC(=O)C1CCN(C(=O)Nc2ccccc2)CC1,> 4 mM (inactive)
8,c1cncc(Nc2nc(-c3ccncc3)cs2)c1,> 4 mM (inactive)
9,CC1=C(/C=C/C(C)=C/C=C/C(C)=C/C=C/C=C(C)/C=C/C=C(C)/C=C/C(=O)[C@]2(C)C[C@@H](O)CC2(C)C)C(C)(C)C[C@H](O)C1,> 4 mM (inactive)
10,O=c1c[n+]([O-])c2ccccc2n1OCc1ccccn1,> 4 mM (inactive)
11,NC(=O)c1ccsc1NC(=O)c1cccnc1,> 4 mM (inactive)
12,COC1C=CC23c4cc5c(cc4CN(CC2O)[C@@H]3C1)OCO5 (stereo partly specified),> 4 mM (inactive)
13,O=C(O)C(O)C(O)C(O)C(O)C(=O)O (stereo unspecified),> 4 mM (inactive)
14,Cc1ccc(C(=O)Nc2c[nH]c(=O)[nH]c2=O)cc1,> 4 mM (inactive)
15,O=C(Nn1cnnc1)c1cc2c(s1)CCCC2,> 4 mM (inactive)
16,Cc1ccc(C)n1/N=C1\NC(=O)CS1,> 4 mM (inactive)
17,Nc1ncnc2c1ncn2CCN1CCCCC1,> 4 mM (inactive)
18,CN1CCC(O)N1C(=O)c1ccccc1O (stereo unspecified),> 4 mM (inactive)
19,C[C@@H]1CC[C@@]2(NC1)O[C@H]1C[C@H]3C4CC=C5C[C@@H](O)CC[C@]5(C)C4CC[C@]3(C)C1[C@@H]2C (stereo partly specified),> 4 mM (inactive)
20,CC(=O)OCC(OC(C)=O)C(OC(C)=O)C(OC(C)=O)C(OC(C)=O)C(COC(C)=O)OC(C)=O (stereo unspecified),> 4 mM (inactive)
21,Cc1cc(C)cc(C(=O)n2cnnc2N)c1,> 4 mM (inactive)
22,OCCCc1nc2ccc(C(F)(F)F)cc2[nH]1,> 4 mM (inactive)
23,CCOC(=O)Cc1cc(=O)n2[nH]c(C)cc2n1,> 4 mM (inactive)
